Results: patent US8642609B2, “Modulators of ATP-binding cassette transporters” (Vertex Pharmaceuticals Incorporated, priority 2003, dated 2014)
pEC50: −log10 of the molar value.

Molecular target: T1, ΔF508-CFTR (Homo sapiens, UniProt P13569, DEL508-508)
T1 construct: expressed in transfected cells
Assay: Membrane potential optical assay (FRET/VIPR), identification of correction compounds
Type: cell-based
Conditions: for Emax: relative efficacy
Text: I) Membrane Potential Optical Methods for Assaying ΔF508-CFTR Modulation Properties of Compounds
The optical membrane potential assay utilized voltage-sensitive FRET sensors described by Gonzalez and Tsien (See, Gonzalez, J. E. and R. Y. Tsien (1995) “Voltage sensing by fluorescence resonance energy transfer in single cells” Biophys J 69(4): 1272-80, and Gonzalez, J. E. and R. Y. Tsien (1997) “Improved indicators of cell membrane potential that use fluorescence resonance energy transfer” Chem Biol 4(4): 269-77) in combination with instrumentation for measuring fluorescence changes such as the Voltage/Ion Probe Reader (VIPR) (See, Gonzalez, J. E., K. Oades, et al. (1999) “Cell-based assays and instrumentation for screening ion-channel targets” Drug Discov Today 4(9): 431-439).
These voltage sensitive assays are based on the change in fluorescence resonant energy transfer (FRET) between the membrane-soluble, voltage-sensitive dye, DiSBAC2(3), and a fluorescent phospholipid, CC2-DMPE, which is attached to the outer leaflet of the plasma membrane and acts as a FRET donor. Changes in membrane potential (Vm) cause the negatively charged DiSBAC2(3) to redistribute across the plasma membrane and the amount of energy transfer from CC2-DMPE changes accordingly. The changes in fluorescence emission were monitored using VIPR™ II, which is an integrated liquid handler and fluorescent detector designed to conduct cell-based screens in 96- or 384-well microtiter plates.
Identification of Correction Compounds
To identify small molecules that correct the trafficking defect associated with ΔF508-CFTR; a single-addition HTS assay format was developed. The cells were incubated in serum-free medium for 16 hrs at 37° C. in the presence or absence (negative control) of test compound. As a positive control, cells plated in 384-well plates were incubated for 16 hrs at 27° C. to “temperature-correct” ΔF508-CFTR. The cells were subsequently rinsed 3× with Krebs Ringers solution and loaded with the voltage-sensitive dyes. To activate ΔF508-CFTR, 10 μM forskolin and the CFTR potentiator, genistein (20 μM), were added along with Cl^−-free medium to each well. The addition of Cl^−-free medium promoted Cl^− efflux in response to ΔF508-CFTR activation and the resulting membrane depolarization was optically monitored using the FRET-based voltage-sensor dyes.
NIH3T3 mouse fibroblasts stably expressing ΔF508-CFTR are used for optical measurements of membrane potential. The cells are maintained at 37° C. in 5% CO2 and 90% humidity in Dulbecco's modified Eagle's medium supplemented with 2 mM glutamine, 10% fetal bovine serum, 1×NEAA, β-ME, 1× pen/strep, and 25 mM HEPES in 175 cm^2 culture flasks. For all optical assays, the cells were seeded at 30,000/well in 384-well matrigel-coated plates and cultured for 2 hrs at 37° C. before culturing at 27° C. for 24 hrs. for the potentiator assay. For the correction assays, the cells are cultured at 27° C. or 37° C. with and without compounds for 16-24 hours B) Electrophysiological Assays for assaying ΔF508-CFTR modulation properties of compounds

T1 sequence (P13569 with tags, fused parts or gaps DEL508-508): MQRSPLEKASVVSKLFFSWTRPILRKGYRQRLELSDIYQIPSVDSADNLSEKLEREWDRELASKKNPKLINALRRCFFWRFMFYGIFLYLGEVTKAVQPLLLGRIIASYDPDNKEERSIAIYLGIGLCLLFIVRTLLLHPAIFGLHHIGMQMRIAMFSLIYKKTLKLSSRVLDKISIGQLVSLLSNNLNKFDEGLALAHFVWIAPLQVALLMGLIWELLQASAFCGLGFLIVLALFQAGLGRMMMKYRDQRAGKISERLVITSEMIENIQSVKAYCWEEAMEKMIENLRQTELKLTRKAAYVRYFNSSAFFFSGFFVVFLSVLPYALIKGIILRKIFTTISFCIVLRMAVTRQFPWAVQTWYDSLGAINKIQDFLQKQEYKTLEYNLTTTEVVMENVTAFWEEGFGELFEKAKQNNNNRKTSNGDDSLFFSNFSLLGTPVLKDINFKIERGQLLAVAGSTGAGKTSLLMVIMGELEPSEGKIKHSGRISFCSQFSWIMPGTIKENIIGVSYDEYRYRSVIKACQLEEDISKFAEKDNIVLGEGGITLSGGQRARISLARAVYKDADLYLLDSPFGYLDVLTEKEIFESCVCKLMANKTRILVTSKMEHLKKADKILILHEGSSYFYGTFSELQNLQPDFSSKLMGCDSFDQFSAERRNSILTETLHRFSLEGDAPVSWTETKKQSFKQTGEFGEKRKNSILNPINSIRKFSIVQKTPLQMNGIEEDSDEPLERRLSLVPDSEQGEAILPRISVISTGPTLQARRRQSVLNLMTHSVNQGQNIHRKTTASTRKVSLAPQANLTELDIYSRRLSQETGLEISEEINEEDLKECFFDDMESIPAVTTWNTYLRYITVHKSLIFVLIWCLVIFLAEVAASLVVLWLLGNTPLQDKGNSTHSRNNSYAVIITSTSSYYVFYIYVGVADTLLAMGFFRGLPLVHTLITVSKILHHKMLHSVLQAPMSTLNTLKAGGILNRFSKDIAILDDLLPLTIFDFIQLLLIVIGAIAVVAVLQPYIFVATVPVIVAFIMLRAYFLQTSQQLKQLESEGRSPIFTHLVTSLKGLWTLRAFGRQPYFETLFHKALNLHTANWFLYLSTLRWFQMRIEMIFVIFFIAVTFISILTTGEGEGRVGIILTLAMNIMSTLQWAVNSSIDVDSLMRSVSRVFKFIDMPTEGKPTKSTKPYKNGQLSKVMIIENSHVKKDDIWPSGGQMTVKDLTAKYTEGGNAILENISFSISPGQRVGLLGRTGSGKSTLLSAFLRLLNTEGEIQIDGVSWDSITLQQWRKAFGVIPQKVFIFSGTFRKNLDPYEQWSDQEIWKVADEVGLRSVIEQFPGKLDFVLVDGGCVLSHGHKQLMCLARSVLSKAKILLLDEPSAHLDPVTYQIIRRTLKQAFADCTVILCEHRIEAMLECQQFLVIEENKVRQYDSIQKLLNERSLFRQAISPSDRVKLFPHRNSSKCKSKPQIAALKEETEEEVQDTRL

| Structure (SMILES) | pEC50 | Emax [%] |
| --- | --- | --- |
| CC(c1nc2ccccc2c(=O)n1C)N1CCN(C(=O)c2ccc(C(F)(F)F)cc2)CC1 (centres unmarked) [compound 54] | 4.22 to 4.60 | 25 to 100 |
| Cc1cccc(C(=O)N2CCN(C(C)c3nc4ccccc4c(=O)n3C)CC2)c1 (centres unmarked) [compound 57] | 4.22 to 4.60 | < 25 |
| Cc1cccc(C(=O)N2CCN(C(C)c3nc4ccc(Cl)cc4c(=O)n3C)CC2)c1 (centres unmarked) [compound 59] | 4.22 to 4.60 | 25 to 100 |
| CC(=O)N1CCN(C(C)c2nc3ccc(Cl)cc3c(=O)n2C)CC1 (centres unmarked) [compound 60] | 4.22 to 4.60 | < 25 |
| Cc1ccc(S(=O)(=O)N2CCN(Cc3nc4ccc(Cl)cc4c(=O)n3C)CC2)cc1 [compound 66] | 4.22 to 4.60 | < 25 |
| CC(c1nc2ccccc2c(=O)n1C)N1CCN(S(=O)(=O)c2ccccc2)CC1 (centres unmarked) [compound 68] | 4.22 to 4.60 | 25 to 100 |
| Cc1ccccc1S(=O)(=O)N1CCN(C(C)c2nc3ccccc3c(=O)n2C)CC1 (centres unmarked) [compound 69] | 4.22 to 4.60 | 25 to 100 |
| CC(c1nc2ccccc2c(=O)n1C)N1CCN(C(=O)c2cccc(Cl)c2)CC1 (centres unmarked) [compound 75] | 4.22 to 4.60 | < 25 |
| COc1ccc(C(=O)N2CCN(C(C)c3nc4ccc(Cl)cc4c(=O)n3C)CC2)cc1OC (centres unmarked) [compound 77] | 4.22 to 4.60 | < 25 |
| CC(c1nc2ccccc2c(=O)n1C)N1CCN(S(C)(=O)=O)CC1 (centres unmarked) [compound 79] | 4.22 to 4.60 | < 25 |
| COc1ccc(C(=O)N2CCN(C(C)c3nc4ccccc4c(=O)n3C)CC2)cc1 (centres unmarked) [compound 81] | 4.22 to 4.60 | < 25 |
| CC(c1nc2ccccc2c(=O)n1C)N1CCN(C(=O)c2ccccc2Cl)CC1 (centres unmarked) [compound 82] | 4.22 to 4.60 | < 25 |
| Cn1c(CN2CCN(S(=O)(=O)c3ccc(Br)cc3)CC2)nc2ccc(Cl)cc2c1=O [compound 84] | 4.22 to 4.60 | < 25 |
| CCc1nc2ccccc2c(=O)n1C [compound 87] | 4.22 to 4.60 | < 25 |
| CCc1nc2ccc(Cl)cc2c(=O)n1C [compound 88] | 4.22 to 4.60 | < 25 |
| CCCn1c(C(C)OCC)nc2ccccc2c1=O (centres unmarked) [compound 89] | 4.22 to 4.60 | < 25 |
| CC(c1nc2cc(Cl)ccc2c(=O)n1C)N1CCNCC1 (centres unmarked) [compound 90] | 4.22 to 4.60 | < 25 |
| CC(c1nc2cc(Cl)ccc2c(=O)n1C)N1CCN(S(=O)(=O)c2ccccc2)CC1 (centres unmarked) [compound 91] | 4.60 to 5.00 | 25 to 100 |
| COc1ccc(S(=O)(=O)N2CCN(C(C)c3nc4cc(Cl)ccc4c(=O)n3C)CC2)cc1OC (centres unmarked) [compound 100] | 4.60 to 5.00 | 25 to 100 |
| CC(c1nc2cc(Cl)ccc2c(=O)n1C)N1CCN(C(=O)c2cccc(C(F)(F)F)c2)CC1 (centres unmarked) [compound 101] | 4.60 to 5.00 | 25 to 100 |
| CCc1nc2cccc(Cl)c2c(=O)n1C [compound 102] | 4.22 to 4.60 | < 25 |
| CC(c1nc2cccc(Cl)c2c(=O)n1C)N1CCN(S(=O)(=O)c2ccccc2)CC1 (centres unmarked) [compound 103] | 4.60 to 5.00 | < 25 |
| CC(c1nc2cccc(Cl)c2c(=O)n1C)N1CCN(S(=O)(=O)c2ccc(Cl)cc2)CC1 (centres unmarked) [compound 104] | 4.60 to 5.00 | < 25 |
| CC(c1nc2cccc(Cl)c2c(=O)n1C)N1CCN(S(=O)(=O)c2ccc(Br)cc2)CC1 (centres unmarked) [compound 105] | 4.60 to 5.00 | 25 to 100 |
| COc1ccc(S(=O)(=O)N2CCN(C(C)c3nc4cccc(Cl)c4c(=O)n3C)CC2)cc1 (centres unmarked) [compound 106] | 4.60 to 5.00 | < 25 |
| Cc1ccc(S(=O)(=O)N2CCN(C(C)c3nc4cccc(Cl)c4c(=O)n3C)CC2)cc1 (centres unmarked) [compound 107] | 4.60 to 5.00 | < 25 |
| CC(c1nc2cc(Cl)ccc2c(=O)n1C)N1CCN(S(C)(=O)=O)CC1 (centres unmarked) [compound 108] | 4.60 to 5.00 | < 25 |

Continued, values first:

| pEC50 | Emax [%] | Structure (SMILES) |
| --- | --- | --- |
| 4.60 to 5.00 | < 25 | CC(c1nc2ccccc2c(=O)n1C)N1CCN(C(=O)c2ccc(Br)cc2)CC1 (centres unmarked) [compound 55] |
| 4.60 to 5.00 | < 25 | Cc1ccc(NC(=O)N2CCN(C(C)c3nc4ccccc4c(=O)n3C)CC2)cc1 (centres unmarked) [compound 56] |
| 4.60 to 5.00 | < 25 | Cc1ccc(C(=O)N2CCN(C(C)c3cc4ccc(Cl)cc4c(=O)n3C)CC2)cc1 (centres unmarked) [compound 58] |
| 4.60 to 5.00 | 25 to 100 | CC(c1nc2ccccc2c(=O)n1C)N1CCN(S(=O)(=O)c2cccc(Cl)c2)CC1 (centres unmarked) [compound 61] |
| > 5.00 | 25 to 100 | COc1ccc(S(=O)(=O)N2CCN(C(C)c3nc4ccc(Cl)cc4c(=O)n3C)CC2)cc1 (centres unmarked) [compound 62] |
| 4.60 to 5.00 | < 25 | CC(c1nc2ccc(Cl)cc2c(=O)n1C)N1CCN(S(=O)(=O)c2ccccc2Cl)CC1 (centres unmarked) [compound 63] |
| 4.60 to 5.00 | 25 to 100 | CC(c1nc2ccc(Cl)cc2c(=O)n1C)N1CCN(S(=O)(=O)c2cccc(Cl)c2)CC1 (centres unmarked) [compound 64] |
| 4.60 to 5.00 | < 25 | Cn1c(CN2CCN(S(=O)(=O)c3ccccc3)CC2)nc2ccc(Cl)cc2c1=O [compound 65] |
| 4.60 to 5.00 | 25 to 100 | Cn1c(CN2CCN(S(=O)(=O)c3ccc(Cl)cc3)CC2)nc2ccc(Cl)cc2c1=O [compound 67] |
| > 5.00 | 25 to 100 | CC(c1nc2ccccc2c(=O)n1C)N1CCN(S(=O)(=O)c2ccc(C(F)(F)F)cc2)CC1 (centres unmarked) [compound 70] |
| 4.60 to 5.00 | 25 to 100 | CC(c1nc2ccc(Cl)cc2c(=O)n1C)N1CCN(S(=O)(=O)c2ccccc2)CC1 (centres unmarked) [compound 71] |
| 4.60 to 5.00 | 25 to 100 | COc1ccc(S(=O)(=O)N2CCN(C(C)c3nc4ccc(Cl)cc4c(=O)n3C)CC2)cc1OC (centres unmarked) [compound 72] |
| > 5.00 | 25 to 100 | CC(c1nc2ccc(Cl)cc2c(=O)n1C)N1CCN(S(=O)(=O)c2ccc(C(F)(F)F)cc2)CC1 (centres unmarked) [compound 73] |
| 4.60 to 5.00 | < 25 | Cc1ccc(C(=O)N2CCN(C(C)c3nc4ccccc4c(=O)n3C)CC2)cc1 (centres unmarked) [compound 74] |
| 4.60 to 5.00 | < 25 | COc1ccc(C(=O)N2CCN(C(C)c3nc4ccccc4c(=O)n3C)CC2)cc1OC (centres unmarked) [compound 76] |
| 4.60 to 5.00 | < 25 | CC(c1nc2ccc(Cl)cc2c(=O)n1C)N1CCN(C(=O)c2ccc(C(F)(F)F)cc2)CC1 (centres unmarked) [compound 78] |
| 4.60 to 5.00 | 25 to 100 | Cc1ccccc1S(=O)(=O)N1CCN(C(C)c2nc3ccc(Cl)cc3c(=O)n2C)CC1 (centres unmarked) [compound 80] |
| 4.60 to 5.00 | < 25 | CC(c1nc2ccc(Cl)cc2c(=O)n1C)N1CCN(C(=O)c2cccc(Cl)c2)CC1 (centres unmarked) [compound 83] |
| 4.60 to 5.00 | 25 to 100 | Cc1cccc(S(=O)(=O)N2CCN(C(C)c3nc4ccc(Cl)cc4c(=O)n3C)CC2)c1 (centres unmarked) [compound 85] |
| 4.60 to 5.00 | < 25 | CC(c1nc2ccc(Cl)cc2c(=O)n1C)N1CCN(S(=O)(=O)Cc2ccccc2)CC1 (centres unmarked) [compound 86] |
| > 5.00 | > 100 | Cc1ccc(S(=O)(=O)N2CCN(C(C)c3nc4cc(Cl)ccc4c(=O)n3C)CC2)cc1 (centres unmarked) [compound 92] |
| > 5.00 | 25 to 100 | COc1ccc(S(=O)(=O)N2CCN(C(C)c3nc4cc(Cl)ccc4c(=O)n3C)CC2)cc1 (centres unmarked) [compound 93] |
| > 5.00 | 25 to 100 | CC(c1nc2cc(Cl)ccc2c(=O)n1C)N1CCN(S(=O)(=O)c2ccc(Cl)cc2)CC1 (centres unmarked) [compound 94] |
| > 5.00 | 25 to 100 | CC(c1nc2cc(Cl)ccc2c(=O)n1C)N1CCN(S(=O)(=O)c2ccc(Br)cc2)CC1 (centres unmarked) [compound 95] |
| > 5.00 | 25 to 100 | Cc1cccc(S(=O)(=O)N2CCN(C(C)c3nc4cc(Cl)ccc4c(=O)n3C)CC2)c1 (centres unmarked) [compound 96] |
| > 5.00 | 25 to 100 | CC(c1nc2cc(Cl)ccc2c(=O)n1C)N1CCN(S(=O)(=O)c2cccc(Cl)c2)CC1 (centres unmarked) [compound 97] |
| > 5.00 | 25 to 100 | CC(c1nc2cc(Cl)ccc2c(=O)n1C)N1CCN(S(=O)(=O)c2ccc(C(F)(F)F)cc2)CC1 (centres unmarked) [compound 98] |
| > 5.00 | 25 to 100 | CC(c1nc2cc(Cl)ccc2c(=O)n1C)N1CCN(S(=O)(=O)c2ccc(OC(F)(F)F)cc2)CC1 (centres unmarked) [compound 99] |
